These results are taken from PubChem BioAssay (NCI).

Some test systems named below: OVCAR-5 ovarian; UACC-62 melanoma; K-562 leukemia; KM12 colon; BT-549 breast; A549 NSCLC; DU-145 prostate; HS 578T breast; COLO 205 colon; 786-0 renal; SF-268 CNS; MDA-N; U251 CNS; CAKI-1 renal; SN12C renal; ACHN renal; HCT-116 colon; NCI-H23 lung; HOP-62 NSCLC.
Assay in all cases: inhibition of tumour cell growth, NCI panel, 48 h

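Step 1: Grow cells in 96-well plates. Step 2: Expose to compound for 48 hours at 5 concentrations. Step 3: Interpolate endpoints linearly; if unreached, use highest concentration. TGI marks complete inhibition of growth.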

For the molecule `Cc1cc(C)c(O)c(CN2CCN(C(C)C)CCN(C(C)C)CC2)c1`, the TGI in the experiment on OVCAR-5 ovarian is over 100 µM; in the experiment on UACC-62 melanoma, over 100 µM; in the experiment with K-562 leukemia, over 100 µM; in the experiment with KM12 colon it was 46.5 µM; with BT-549 breast, 54 µM; in the experiment on A549 NSCLC it was over 100 µM. Moreover, the TGI is over 100 µM in the experiment on DU-145 prostate; over 100 µM in the experiment with HS 578T breast; 60.8 µM in the experiment with COLO 205 colon; over 100 µM in the experiment on 786-0 renal; over 100 µM in the experiment on SF-268 CNS; 68.3 µM in the experiment with MDA-N. Besides, the TGI in the experiment with U251 CNS was over 100 µM; with CAKI-1 renal it was over 100 µM; in the experiment on SN12C renal, 83.9 µM; in the experiment with ACHN renal, over 100 µM; in the experiment on HCT-116 colon, 85.2 µM.

For `C[Si](C)(N[Si](C)(C)OCCc1ccccc1)OCCc1ccccc1`, the TGI with OVCAR-5 ovarian, with UACC-62 melanoma, in the experiment with NCI-H23 lung, in the experiment with KM12 colon, in the experiment with BT-549 breast and in the experiment on DU-145 prostate was over 100 µM in each case. Besides, the TGI with 786-0 renal, with MDA-N, in the experiment with U251 CNS, with CAKI-1 renal, with SN12C renal and in the experiment on ACHN renal was over 100 µM in each case. In addition, the TGI with HOP-62 NSCLC and in the experiment on HCT-116 colon was over 100 µM each time.

With `O=c1cc(CSc2c(-c3ccccc3)c(=O)n(-c3ccccc3)c(=S)n2-c2ccccc2)[nH]c(=O)[nH]1`, the TGI in the experiment with OVCAR-5 ovarian, in the experiment with UACC-62 melanoma, in the experiment on K-562 leukemia, in the experiment on KM12 colon, with BT-549 breast and in the experiment with A549 NSCLC was over 100 µM throughout. Moreover, the TGI with DU-145 prostate, in the experiment with COLO 205 colon, in the experiment with 786-0 renal, with SF-268 CNS, in the experiment with MDA-N and in the experiment with U251 CNS was over 100 µM each time. For the same molecule, the TGI in the experiment on CAKI-1 renal, in the experiment on SN12C renal, with ACHN renal, in the experiment with HOP-62 NSCLC and in the experiment on HCT-116 colon was over 100 µM in each case.

On to `Cc1ccc(-c2n[nH]c(=O)n2NC(=O)c2ccccc2C(=O)O)cc1`, for which the TGI with UACC-62 melanoma, with K-562 leukemia, in the experiment on NCI-H23 lung, in the experiment on KM12 colon, in the experiment on BT-549 breast and in the experiment with A549 NSCLC was over 100 µM throughout. Also, the TGI in the experiment with DU-145 prostate, in the experiment with HS 578T breast, with 786-0 renal, in the experiment on SF-268 CNS, with MDA-N and with U251 CNS was over 100 µM throughout. Also, the TGI with CAKI-1 renal, in the experiment on SN12C renal, in the experiment with ACHN renal, with HOP-62 NSCLC and in the experiment with HCT-116 colon was over 100 µM in each case.

As for `CCCN(CCC)C(=S)N/N=C/c1ccccn1`, the TGI was 21.4 µM in the experiment on OVCAR-5 ovarian; 1.91 µM in the experiment with UACC-62 melanoma; 19.5 µM in the experiment with NCI-H23 lung; 16.1 µM in the experiment with KM12 colon; 22.5 µM with BT-549 breast; 11.9 µM with A549 NSCLC. Also, the TGI in the experiment with DU-145 prostate is over 43.8 µM; in the experiment with HS 578T breast it was over 100 µM; with COLO 205 colon, 0.509 µM; in the experiment with 786-0 renal, 1.07 µM; with MDA-N, 14.8 µM; in the experiment on U251 CNS, over 25.4 µM. Moreover, the TGI worked out at 15.9 µM with CAKI-1 renal; 0.678 µM with SN12C renal; 0.384 µM with ACHN renal; 3.18 µM in the experiment on HOP-62 NSCLC; 1.58 µM with HCT-116 colon.

Regarding `COC(=O)[C@H](Cc1c[nH]c2ccccc12)NP(=O)(O)OC[C@H]1O[C@@H](n2cc(C)c(=O)[nH]c2=O)C[C@@H]1N=[N+]=[N-]`, the TGI with OVCAR-5 ovarian, in the experiment on UACC-62 melanoma, in the experiment with K-562 leukemia, with NCI-H23 lung, in the experiment on KM12 colon and in the experiment on BT-549 breast was over 100 µM in each case. Besides, the TGI in the experiment with A549 NSCLC, with DU-145 prostate, in the experiment with HS 578T breast, with COLO 205 colon, in the experiment with 786-0 renal and with SF-268 CNS was over 100 µM each time. Further, the TGI with MDA-N, with U251 CNS, with CAKI-1 renal, in the experiment on SN12C renal, in the experiment on HOP-62 NSCLC and with HCT-116 colon was over 100 µM each time.

For `O=c1[nH]nc(Cc2ccccc2)n1CCCl`, the TGI with OVCAR-5 ovarian, in the experiment on UACC-62 melanoma, in the experiment on K-562 leukemia, in the experiment with NCI-H23 lung, with KM12 colon and in the experiment with BT-549 breast was over 100 µM throughout. Moreover, the TGI in the experiment with DU-145 prostate, with HS 578T breast, in the experiment on COLO 205 colon, in the experiment on 786-0 renal, in the experiment with SF-268 CNS and in the experiment on MDA-N was over 100 µM throughout. In addition, the TGI with U251 CNS, with CAKI-1 renal, in the experiment on SN12C renal, in the experiment on HOP-62 NSCLC and in the experiment on HCT-116 colon was over 100 µM each time.

Regarding `CC1CC/C(=C\c2ccc(N(C)C)cc2)C2=C1C(c1ccc(N(C)C)cc1)NC(=S)N2` (stereo not given), the TGI in the experiment on OVCAR-5 ovarian, in the experiment on UACC-62 melanoma, in the experiment with K-562 leukemia, in the experiment on NCI-H23 lung, with KM12 colon and in the experiment with BT-549 breast was over 100 µM throughout. Also, the TGI in the experiment with DU-145 prostate, in the experiment with HS 578T breast, in the experiment on COLO 205 colon, in the experiment with 786-0 renal, in the experiment on SF-268 CNS and with MDA-N was over 100 µM in each case. The TGI in the experiment on U251 CNS, with CAKI-1 renal, in the experiment with SN12C renal, in the experiment on ACHN renal and in the experiment on HCT-116 colon was over 100 µM in each case.

In the case of `N#Cc1ccc(N2CCOCC2)cc1`, the TGI with OVCAR-5 ovarian, with UACC-62 melanoma, with NCI-H23 lung, in the experiment on KM12 colon, in the experiment on BT-549 breast and with A549 NSCLC was over 100 µM in each case. Further, the TGI with DU-145 prostate, with HS 578T breast, in the experiment on COLO 205 colon, in the experiment on 786-0 renal, in the experiment on SF-268 CNS and in the experiment with MDA-N was over 100 µM in each case. In addition, the TGI in the experiment with U251 CNS, in the experiment with CAKI-1 renal, with SN12C renal, in the experiment with ACHN renal, with HOP-62 NSCLC and with HCT-116 colon was over 100 µM each time.

Consider `O=C(OCc1ccc([N+](=O)[O-])cc1)N1c2ccccc2[C@@]23O[C@]24CCC[C@H]3C#C/C=C\C#C[C@H]14`, for which the TGI in the experiment with OVCAR-5 ovarian, with UACC-62 melanoma, with K-562 leukemia, with NCI-H23 lung, in the experiment with KM12 colon and with BT-549 breast was over 100 µM each time. Also, the TGI in the experiment on A549 NSCLC, in the experiment with DU-145 prostate, with HS 578T breast, in the experiment with COLO 205 colon, in the experiment with 786-0 renal and with SF-268 CNS was over 100 µM each time. Further, the TGI with MDA-N, in the experiment with U251 CNS, with CAKI-1 renal, in the experiment with SN12C renal, in the experiment with ACHN renal and in the experiment on HCT-116 colon was over 100 µM in each case.

Take `O=C(CCCN1CCC(Nc2ccccc2)(c2nnnn2C2CCCCC2)CC1)c1ccc(F)cc1`: the TGI in the experiment with OVCAR-5 ovarian was 19.6 µM; in the experiment on UACC-62 melanoma, 23.9 µM; in the experiment with K-562 leukemia, 33.9 µM; with NCI-H23 lung it was 28.8 µM; in the experiment on KM12 colon, 21.5 µM; in the experiment with BT-549 breast, 20.4 µM. Besides, the TGI with A549 NSCLC is 20.4 µM; in the experiment with DU-145 prostate it was 15.5 µM; in the experiment on HS 578T breast, 29.2 µM; in the experiment with COLO 205 colon, 4.77 µM; with 786-0 renal it was 15.9 µM; with SF-268 CNS it was 9.25 µM. Moreover, the TGI with MDA-N is 18.1 µM; in the experiment with U251 CNS, 18 µM; with SN12C renal, 41 µM; in the experiment on ACHN renal it was 16.7 µM; with HOP-62 NSCLC, 21.3 µM; with HCT-116 colon, 16.4 µM.

For `CCOC(=O)C1(N)CCc2[nH][nH]c(=O)c2C1` (stereo not given), the TGI with OVCAR-5 ovarian, in the experiment on UACC-62 melanoma, with K-562 leukemia, in the experiment on NCI-H23 lung, in the experiment with KM12 colon and in the experiment on BT-549 breast was over 100 µM each time. Moreover, the TGI in the experiment on A549 NSCLC, in the experiment with HS 578T breast, in the experiment with COLO 205 colon, in the experiment with 786-0 renal, with MDA-N and with U251 CNS was over 100 µM throughout. Moreover, the TGI in the experiment on CAKI-1 renal, in the experiment with ACHN renal, with HOP-62 NSCLC and in the experiment with HCT-116 colon was over 100 µM throughout.

For `CCN(CC)CCN(C(=Nc1ccccc1)N1CCCCC1)c1ccccc1`, the TGI was 16.2 µM in the experiment on K-562 leukemia; 25.6 µM in the experiment on NCI-H23 lung; 23.9 µM in the experiment on KM12 colon; 47 µM in the experiment on BT-549 breast; 45.2 µM in the experiment with A549 NSCLC; over 100 µM in the experiment with DU-145 prostate. Moreover, the TGI was 27 µM in the experiment on HS 578T breast; 13.1 µM with COLO 205 colon; 85.9 µM in the experiment on 786-0 renal; over 100 µM in the experiment with SF-268 CNS; 11.2 µM with MDA-N; 43.3 µM with U251 CNS. Moreover, the TGI was over 100 µM in the experiment on CAKI-1 renal, 29 µM with SN12C renal, 22.2 µM in the experiment with HOP-62 NSCLC and 3.35 µM in the experiment with HCT-116 colon.
